Data published in ChEMBL document CHEMBL5050844 (2019).

How the values were obtained:
[1] = Induction of anti-CD3 antibodies-stimulated human exhausted T cell activation assessed fold increase in IFN-gamma secretion measured by ELISA assay; assay type: functional, T cell line; also: reference of the scale not given here
[2] = Induction of allogenic human T cell activation at 3 uM assessed fold increase in cell proliferation; assay type: functional, T cell line
[3] = Induction of activation of human CD56+ CD3- NK cells co-cultured with human K562 cells in 1:1 ratio and assessed as increase in IFN-gamma secretion at 2.5 uM measured by ELISA assay; assay type: functional, Natural killer cell
[4] = system: B cell; assay: Induction of anti-IgM-stimulated human CD20+ B cell activation at 10 to 1000 uM assessed as increase in CD69 expression measured as mean fluorescence intensity AUC by flow cytometry analysis; assay type: functional, cell-based; details: dose 10-1000 µM
[5] = Induction of anti-CD3/CD28 antibodies-stimulated human anergic T cell activation at 1.11 uM assessed fold increase in IFN-gamma secretion measured by ELISA assay; assay type: functional, T cell line
[6] = Induction of anti-CD3 antibodies-stimulated human T cell activation at 8 uM assessed fold increase in IL-2 secretion measured by ELISA assay; assay type: functional, T cell line; also: reference of the scale not given here
[7] = Induction of activation of human CD56+ CD3- NK cells co-cultured with human K562 cells in 1:1 ratio and assessed as increase in IFN-gamma secretion at 0.625 uM measured by ELISA assay; assay type: functional, Natural killer cell
[8] = Induction of activation of human CD56+ CD3- NK cells co-cultured with human K562 cells in 1:1 ratio and assessed as increase in TNF-alpha secretion at 2.5 uM measured by ELISA assay; assay type: functional, Natural killer cell
[9] = Induction of activation of human CD56+ CD3- NK cells co-cultured with human K562 cells in 1:1 ratio and assessed as increase in IFN-gamma secretion at 10 uM measured by ELISA assay; assay type: functional, Natural killer cell
[10] = Induction of anti-CD3/CD28 antibodies-stimulated human anergic T cell activation at 0.37 uM assessed fold increase in IFN-gamma secretion measured by ELISA assay; assay type: functional, T cell line
[11] = Induction of allogenic human T cell activation at 10 uM assessed fold increase in cell proliferation; assay type: functional, T cell line
[12] = Induction of anti-CD3/CD28 antibodies-stimulated human T cell activation at 1 uM assessed fold increase in CD25 expression measured by ELISA assay; assay type: functional, T cell line
[13] = Induction of anti-CD3/CD28 antibodies-stimulated human anergic T cell activation at 10 uM assessed fold increase in IFN-gamma secretion measured by ELISA assay; assay type: functional, T cell line
[14] = Induction of anti-CD3 antibodies-stimulated human T cell activation at 1 uM assessed fold increase in IL-2 secretion measured by ELISA assay; assay type: functional, T cell line; also: reference of the scale not given here
[15] = target: T1, E3 ubiquitin-protein ligase CBL-B (Homo sapiens, UniProt Q13191); assay: Inhibition of N-terminal Avi-tagged human CBL-B (36 to 427 residues) incubated with 60 nM Src kinase for 1.5 hrs followed by incubation with fluorescently labeled UbcH5B-Ub for 1 hr and measured by TR-FRET assay; assay type: single protein
[16] = Induction of anti-CD3 antibodies-stimulated human T cell activation at 1 uM assessed fold increase in CD25 expression measured by ELISA assay; assay type: functional, T cell line; also: reference of the scale not given here
[17] = Induction of anti-CD3 antibodies-stimulated human exhausted T cell activation assessed fold increase in GM-CSF secretion measured by ELISA assay; assay type: functional, T cell line; also: reference of the scale not given here
[18] = Induction of anti-CD3 antibodies-stimulated human T cell activation at 8 uM assessed fold increase in CD25 expression measured by ELISA assay; assay type: functional, T cell line; also: reference of the scale not given here
[19] = Induction of anti-CD3 antibodies-stimulated human exhausted T cell activation assessed fold increase in IL-2 secretion measured by ELISA assay; assay type: functional, T cell line; also: reference of the scale not given here
[20] = Induction of anti-CD3/CD28 antibodies-stimulated human T cell activation at 4 uM assessed fold increase in CD25 expression measured by ELISA assay; assay type: functional, T cell line
[21] = Induction of anti-CD3/CD28 antibodies-stimulated human T cell activation at 4 uM assessed fold increase in IL-2 secretion measured by ELISA assay; assay type: functional, T cell line
[22] = Induction of anti-CD3/CD28 antibodies-stimulated human T cell activation at 0.3 uM assessed fold increase in IL-2 secretion measured by ELISA assay; assay type: functional, T cell line
[23] = Induction of activation of human CD56+ CD3- NK cells co-cultured with human K562 cells in 1:1 ratio and assessed as increase in TNF-alpha secretion at 0.625 uM measured by ELISA assay; assay type: functional, Natural killer cell
[24] = Induction of activation of human CD56+ CD3- NK cells co-cultured with human K562 cells in 1:1 ratio and assessed as increase in TNF-alpha secretion at 10 uM measured by ELISA assay; assay type: functional, Natural killer cell
[25] = Induction of anti-CD3/CD28 antibodies-stimulated human T cell activation at 1 uM assessed fold increase in IL-2 secretion measured by ELISA assay; assay type: functional, T cell line
[26] = Induction of anti-CD3/CD28 antibodies-stimulated human T cell activation at 0.3 uM assessed fold increase in CD25 expression measured by ELISA assay; assay type: functional, T cell line
[27] = Induction of anti-CD3 antibodies-stimulated human exhausted CD8+ T cell activation assessed fold increase in CTLA4 expression measured by flow cytometry analysis; assay type: functional, T cell line; also: reference of the scale not given here
[28] = Induction of anti-CD3 antibodies-stimulated human exhausted CD4+ T cell activation assessed fold increase in CTLA4 expression measured by flow cytometry analysis; assay type: functional, T cell line; also: reference of the scale not given here
[29] = Induction of anti-CD3 antibodies-stimulated human CD4+ T cell activation in immunocompetent mouse assessed fold increase in CD25 expression at 135 mg/kg, po administered twice a day; assay type: functional; also: reference of the scale not given here
[30] = Induction of anti-CD3 antibodies-stimulated human CD8+ T cell activation in immunocompetent mouse assessed fold increase in CD25 expression at 90 mg/kg, po administered twice a day; assay type: functional; also: reference of the scale not given here
[31] = target: T1, E3 ubiquitin-protein ligase CBL-B; assay: Binding affinity towards N-terminal biotinylated Avi-tagged human CBL-B (36 to 427 residues) measured by surface plasmon resonance assay

T1 sequence (Q13191 whole entry, the tested form may be a part): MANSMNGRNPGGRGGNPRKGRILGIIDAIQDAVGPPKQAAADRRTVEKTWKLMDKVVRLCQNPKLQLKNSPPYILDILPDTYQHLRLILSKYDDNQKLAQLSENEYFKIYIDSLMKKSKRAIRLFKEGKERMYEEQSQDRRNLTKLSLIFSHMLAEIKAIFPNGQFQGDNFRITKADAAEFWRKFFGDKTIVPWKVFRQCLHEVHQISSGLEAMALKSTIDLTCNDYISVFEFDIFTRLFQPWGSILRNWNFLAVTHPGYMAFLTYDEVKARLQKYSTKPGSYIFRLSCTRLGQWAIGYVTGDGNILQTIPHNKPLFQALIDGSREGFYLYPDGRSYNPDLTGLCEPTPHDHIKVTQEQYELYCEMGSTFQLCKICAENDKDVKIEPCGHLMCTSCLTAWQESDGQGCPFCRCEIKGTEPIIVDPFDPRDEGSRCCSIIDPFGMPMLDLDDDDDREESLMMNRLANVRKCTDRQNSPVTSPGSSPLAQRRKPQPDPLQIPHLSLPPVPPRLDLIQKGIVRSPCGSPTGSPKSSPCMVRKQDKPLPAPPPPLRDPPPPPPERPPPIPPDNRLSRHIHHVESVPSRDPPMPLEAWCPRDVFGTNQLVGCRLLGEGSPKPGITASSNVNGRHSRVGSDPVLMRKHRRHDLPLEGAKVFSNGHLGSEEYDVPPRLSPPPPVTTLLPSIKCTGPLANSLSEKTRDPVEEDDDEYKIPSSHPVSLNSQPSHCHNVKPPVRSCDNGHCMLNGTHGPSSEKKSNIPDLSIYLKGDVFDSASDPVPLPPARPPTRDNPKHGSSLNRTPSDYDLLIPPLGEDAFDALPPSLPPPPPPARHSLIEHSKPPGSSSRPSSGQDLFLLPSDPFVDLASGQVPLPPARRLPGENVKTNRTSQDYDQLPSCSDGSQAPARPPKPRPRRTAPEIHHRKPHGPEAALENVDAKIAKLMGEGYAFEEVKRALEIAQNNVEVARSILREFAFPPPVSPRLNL

Compound | fold change (FC) [6] | fold change (FC) [12] | fold change (FC) [14] | IC50 [15] | fold change (FC) [16] | fold change (FC) [18] | fold change (FC) [20] | fold change (FC) [21] | fold change (FC) [22] | fold change (FC) [25] | fold change (FC) [26] | Kd [31] | further results
Cn1cnnc1C(F)(F)[C@](C)(F)c1cccc(N2Cc3c(cc(N4CCNCC4)cc3C(F)(F)F)C2=O)c1 | 0.051 | 1.51 | >=0.201 | < 100 nM | >=1.001 | 0.801 | 1.51 | >=7.5 | 2.51 | >=7.5 | 1.31 | – | fold change (FC) [1]: 1.41; fold change (FC) [2]: <=2; fold change (FC) [3]: 2.01; AUC [4]: 0.5; fold change (FC) [5]: 2.51; fold change (FC) [7]: 1.01; fold change (FC) [8]: 2.01; fold change (FC) [9]: 2.01; fold change (FC) [10]: <=2.5; fold change (FC) [11]: <=2; fold change (FC) [13]: 2.51; fold change (FC) [17]: <=1.4; fold change (FC) [19]: >3.01; fold change (FC) [23]: 2.01; fold change (FC) [24]: 2.01
C[C@H](Cc1nncn1C)c1ccnc(NC(=O)c2cccc(C(F)(F)F)n2)c1 | 0.051 | 1.01 | <=0.05 | – | <=0.6 | 0.801 | 1.01 | >=7.5 | 2.51 | 2.51 | 1.01 | – | fold change (FC) [1]: <=1.4; fold change (FC) [2]: <=2; fold change (FC) [3]: <=1; AUC [4]: 0.5; fold change (FC) [5]: <=2.5; fold change (FC) [7]: 1.01; fold change (FC) [27]: <=1.4; fold change (FC) [8]: 1.01; fold change (FC) [9]: 2.01; fold change (FC) [10]: <=2.5; fold change (FC) [11]: <=2; fold change (FC) [28]: <=1.4; fold change (FC) [13]: <=2.5; fold change (FC) [17]: <=1.4; fold change (FC) [19]: <=2.5; fold change (FC) [23]: 1.01; fold change (FC) [24]: 1.01
Cn1cnnc1CC1(c2cccc(N3Cc4c(cc(CN5CC6(CC6)C5)cc4C(F)(F)F)C3=O)c2)COC1 | – | 1.31 | >=0.201 | < 100 nM | >=1.001 | – | – | – | >=7.5 | >=7.5 | 1.31 | – | fold change (FC) [29]: 1.51; fold change (FC) [30]: 1
C[C@H](c1cc2c(c(C(F)(F)F)c1)CN(c1cccc(C3(Cc4nncn4C)COC3)c1)C2=O)N1CCC(C)(F)CC1 | – | >=1.76 | >=0.201 | < 100 nM | >=1.001 | – | – | – | >=7.5 | >=7.5 | >=1.76 | – | fold change (FC) [29]: >2.5; fold change (FC) [30]: 1
Cn1cnnc1CC1(c2cccc(N3Cc4c(cc(CN5CCC(F)CC5)cc4C(F)(F)F)C3=O)c2)COC1 | – | – | – | < 100 nM | – | – | – | – | – | – | – | – | fold change (FC) [29]: 1.51; fold change (FC) [30]: 1
C[C@H](Cc1nncn1C)c1cccc(N2Cc3c(cc(CN4CC[C@@H](F)C4)cc3C(F)(F)F)C2=O)c1 | >=0.201 | 1.01 | >=0.201 | < 100 nM | >=1.001 | >=1.001 | 1.31 | >=7.5 | 5 | >=7.5 | 1.01 | < 100 nM | –
Cc1conc1C[C@@H](C)c1cccc(N2Cc3c(cc(C(=O)N4CC[C@H](O)C4)cc3C(F)(F)F)C2=O)c1 | >=0.201 | 1.01 | 0.101 | < 100 nM | >=1.001 | >=1.001 | 1.01 | >=7.5 | 2.51 | 5 | 1.01 | < 100 nM | –
Cc1[nH]ncc1-c1cc2c(c(C(F)(F)F)c1)CN(c1cccc([C@H](C)Cc3nncn3C)c1)C2=O | >=0.201 | 1.51 | 0.151 | < 100 nM | 0.801 | >=1.001 | 1.51 | >=7.5 | 2.51 | 5 | 1.31 | < 100 nM | –
C[C@H](Cc1nncn1C)c1cccc(N2Cc3c(cc(N[C@H]4CCNC4)cc3C(F)(F)F)C2=O)c1 | 0.151 | 1.01 | 0.101 | < 100 nM | 0.801 | >=1.001 | 1.01 | 2.51 | 1.01 | 2.51 | 1.01 | < 100 nM | –
CC(c1cc2c(c(C(F)(F)F)c1)CN(c1cccc([C@H](C)Cc3nncn3C)c1)C2=O)N1CC[C@H](O)C1 (stereo not given in full) | >=0.201 | 1.31 | 0.151 | < 100 nM | >=1.001 | >=1.001 | 1.51 | >=7.5 | 2.51 | >=7.5 | 1.31 | < 100 nM | –
CC(O)c1cc2c(c(C(F)(F)F)c1)CN(c1cccc([C@H](C)Cc3nncn3C)c1)C2=O (stereo not given in full) | >=0.201 | 1.31 | 0.151 | < 100 nM | 0.801 | >=1.001 | 1.31 | >=7.5 | 2.51 | 5 | 1.01 | < 100 nM | –
CC(C)Nc1cc([C@H](C)Cc2nncn2C)cc(N2Cc3c(cccc3C(F)(F)F)C2=O)n1 | >=0.201 | 1.01 | 0.101 | < 100 nM | 0.801 | >=1.001 | 1.31 | >=7.5 | 1.01 | 2.51 | 1.01 | < 100 nM | –
C[C@H](Cc1nncn1C)c1cccc(N2Cc3c(cc(CN4CC(F)(F)C4)cc3C(F)(F)F)C2=O)c1 | >=0.201 | 1.31 | 0.151 | < 100 nM | >=1.001 | >=1.001 | 1.31 | >=7.5 | 5 | >=7.5 | 1.01 | < 100 nM | –
